Measurements published in US11547699B2, “[2-[(5-nitro-1,3-thiazol-2-yl)carbamoyl]phenyl]ethanoate for use in lymphangioleiomyomatosis and other diseases” (priority 2017, dated 2023).

Assays:
[1] = tested on: phosphorylation of the ribosomal protein S6 in MEF cells; test: rpS6 phosphorylation in MEF cells (ELISA and Western blotting), read-out for mTOR pathway activity; type: cell-based, mouse; details: 60 minutes incubation
Text: These assays are used to test the effect of a compound on the activity of the mTOR pathway. Phosphorylation of ribosomal protein rp60 is used as read-out for mTOR pathway activity. […] Thus, these assays mimic a disease causative mechanism.
MEFs are mouse embryo fibroblasts derived from TSC2 knockout (MEF110) and TSC2+ (MEF157) mice. Tsc2 mutations are known to cause tuberous sclerosis and lymphangioleiomyomatosis in humans.
All cells were maintained in DMEM tissue culture medium, with the addition of fetal calf serum to 10% to support cell proliferation, at 37° C. and 5% CO2.
In MEFs, ribosomal protein S6, which is a component of the 40S ribosome, and phosphorylated at Ser236 by p70 S6 kinase can be assayed by ELISA and Western blotting, using phospho-specific antibodies which detect both the human and the mouse forms of rpS6. This assay is predicitve of compounds with protective or therapetic activities for respiratory and vascular diseases, fibrotic diseases, or neurodegenerative diseases.
Cells were grown to 60-80% confluence in DMEM+10% serum. Medium was replaced with fresh serum free medium two hours before addition of test compound of the invention.
Compound was added as a 1:1000 dilution of the stock solution in DMSO. DMSO was added as a vehicle control, and samples were incubated for a further 60 minutes. […]

[2] = tested on: phosphorylation of the ribosomal protein S6 in 621-101 cells; test: rpS6 phosphorylation in 621-101 cells (ELISA and Western blotting), read-out for mTOR pathway activity; type: cell-based, human; details: 60 minutes incubation
Description: These assays are used to test the effect of a compound on the activity of the mTOR pathway. Phosphorylation of ribosomal protein rp60 is used as read-out for mTOR pathway activity. […] Thus, these assays mimic a disease causative mechanism. 621-101 cells are human cells derived from an angiomyolipoma. They have verified TSC2 mutations and are the only disease-derived mutation-bearing cells used that are mimicking the disease Lymphangioleiomyomitosis. Cells were grown to 60-80% confluence in DMEM+10% serum. Medium was replaced with fresh serum free medium two hours before addition of test compound of the invention. Compound was added as a 1:1000 dilution of the stock solution in DMSO. DMSO was added as a vehicle control, and samples were incubated for a further 60 minutes. For ELISA, cells were harvested into 200 ul cell lysis buffer containing both protease and phosphatase inhibitors, to protect the phosphorylation status of rpS6. Lysates were stored at −80° C. prior to use. 50 ul of lysate per sample was used for the ELISA, which was carried out according to manufacturers' instructions. For Western blotting, cells were harvested into 200 ul cell lysis buffer containing both protease and phosphatase inhibitors and resolved by SDS-PAGE before transfer to PVDF membrane and incubation with anti-phospho-rpS6 and anti-total-rpS6 antibodies.

## CC(=O)Oc1ccccc1C(=O)Nc1ncc([N+](=O)[O-])s1 [the compound of the invention, [2-[(5-nitro-1,3-thiazol-2-yl)carbamoyl]phenyl]ethanoate]
[1]
  tolerability by the cells: well tolerated
[2]
  tolerability by the cells: well tolerated
